Key:
[1] = molecular target: (Homo sapiens, UniProt P43220); assay: h-GLP-1 activity assay (cAMP HTRF, HEK293 cells with stable expression of human GLP-1); type: cell-based; details: relative EC50, 10 nM human GLP-1 set as 100% response, 30 min at 37° C.
Outline: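 cAMP accumulation (HTRF, 665/615 nm, interpolated from standard curve) after 30 min, 37 °C compound treatment of stable human GLP-1 HEK293 cells with 0.5 mM IBMX. EC50 by 4-parameter regression, reported relative to 10 nM GLP-1 (7-37) as full response.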

human OATP1B1 = molecular target: T1, human OATP1B1 (Homo sapiens, UniProt Q9Y6L6); assay: OATP1B1 inhibition assay (HEK293 cells over-expressing human OATP1B1, substrate estradiol 17-β-D-glucuronide); type: cell-based; details: 30 min pre-incubation, 10 min coincubation with estradiol 17-β-D-glucuronide
T1 sequence (Q9Y6L6 1-691): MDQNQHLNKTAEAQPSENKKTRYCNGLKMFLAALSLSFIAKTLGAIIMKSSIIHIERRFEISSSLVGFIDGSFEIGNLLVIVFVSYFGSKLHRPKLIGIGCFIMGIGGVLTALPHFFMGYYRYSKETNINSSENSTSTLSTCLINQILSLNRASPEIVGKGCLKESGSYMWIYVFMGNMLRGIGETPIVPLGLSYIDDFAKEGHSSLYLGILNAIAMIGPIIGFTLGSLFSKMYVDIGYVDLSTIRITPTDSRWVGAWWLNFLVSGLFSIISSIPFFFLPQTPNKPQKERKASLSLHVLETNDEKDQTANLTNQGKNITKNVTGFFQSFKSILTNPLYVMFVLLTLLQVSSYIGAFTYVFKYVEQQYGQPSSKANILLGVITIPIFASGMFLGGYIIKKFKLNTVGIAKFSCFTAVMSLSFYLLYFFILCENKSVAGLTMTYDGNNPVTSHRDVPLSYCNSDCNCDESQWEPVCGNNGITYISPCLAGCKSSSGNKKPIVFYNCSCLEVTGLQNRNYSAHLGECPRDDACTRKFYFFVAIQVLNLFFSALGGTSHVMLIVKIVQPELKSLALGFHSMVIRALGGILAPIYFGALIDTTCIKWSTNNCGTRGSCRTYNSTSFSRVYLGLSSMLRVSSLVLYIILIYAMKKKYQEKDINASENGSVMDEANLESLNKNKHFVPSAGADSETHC
Experimental: HEK293 cells over-expressing human OATP1B1 were used for determining the inhibitory effect of compounds of the application on OATP1B1-mediated transportation. Cells were seeded at a density of 400,000 cells per well in 24-well plates. When reaching confluence of 80˜90%, cells were washed with pre-warmed assay buffer and then pre-incubated with serially diluted test compounds or negative control (NC) or positive inhibitor (PC, Rifampicin) for 30 min, followed by coincubation with the same test compound and OATP1B1 substrate estradiol 17-β-D-glucuronide for 10 min. Cells were washed with pre-cooled buffer, and lysed by freeze-thaw cycles. After extraction by mixture of […] of methanol, the substrate concentration was determined by LC-MS/MS, and protein concentration was determined by BCA method. The substrate transport velocity U is calculated as U=Clysate/(P*T), where Clysate is substrate concentration in lysate, P is protein concentration in lysate, and T is incubation time. Relative transport activity Y is calculated as Y=UTA/UNC. The IC50 value of the tested compounds was calculated by fitting Y to compound concentration using a 4-parameter non-linear regression routine in Prism.

[2] = Pharmacokinetics after oral gavage in fasted SD rats; type: in vivo; details: rat, 5 mg/kg, plasma
Experimental: Compounds of the present application were formulated in 10% DMSO/10%/Cremophor EL/15% PEG400/65% 100 mM Glycine-NaOH pH 10, and administered via oral gavage (P0) at the dosages of 5 or 10 mg per kilogram body weight in fasted SD rats. Plasma samples were collected at 0.25, 0.5, 1, 2, 4, 6, 8, and 24 hours post dosing. Compound concentration was determined by LC-MS and pharmacokinetics parameters were calculated by WinNonlin 8.2 using Non-Compartmental Analysis model.

Sequence of (Homo sapiens, UniProt P43220) (P43220 24-463): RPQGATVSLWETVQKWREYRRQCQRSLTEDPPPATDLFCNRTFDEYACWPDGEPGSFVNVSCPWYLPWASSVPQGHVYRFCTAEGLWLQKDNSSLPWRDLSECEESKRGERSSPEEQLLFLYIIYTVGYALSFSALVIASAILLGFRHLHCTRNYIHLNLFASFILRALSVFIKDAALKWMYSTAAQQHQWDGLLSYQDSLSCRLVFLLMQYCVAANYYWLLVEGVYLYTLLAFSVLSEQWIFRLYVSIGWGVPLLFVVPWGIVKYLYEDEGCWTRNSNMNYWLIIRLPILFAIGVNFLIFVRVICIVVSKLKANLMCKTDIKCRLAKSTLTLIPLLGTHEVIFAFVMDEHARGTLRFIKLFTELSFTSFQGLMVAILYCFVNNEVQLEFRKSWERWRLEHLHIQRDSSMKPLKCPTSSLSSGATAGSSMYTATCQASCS

EC50 [1] | IC50 (human OATP1B1) | AUC [2] | Cmax [2] | bioavailability [2] | Compound
< 20 nM | > 1000 nM | – | – | – | Cc1cc(-n2nc3c(c2-n2ccn(-c4ccc5c(cnn5C)c4F)c2=O)[C@H](C)N(C(=O)c2cc4cc([C@@H]5CCOC(C)(C)C5)ccn4c2C2(c4noc(=O)[nH]4)CC2)CC3)cc(C)c1F (single isomer, unassigned) [Compound 10]
< 20 nM | > 1000 nM | 3000 ng·h/mL | 572 ng/mL | 26% | Cc1cc(-n2nc3c(c2-n2ccn(-c4ccc5c(cnn5C)c4F)c2=O)[C@H](C)N(C(=O)c2cn4cc([C@@H]5CCOC(C)(C)C5)ccc4c2C2(c4noc(=O)[nH]4)CC2)CC3)cc(C)c1F (single isomer, unassigned) [Compound 19]
< 20 nM | > 1000 nM | 10200 ng·h/mL | 1700 ng/mL | 90% | C[C@H]1c2c(nn(-c3ccc(F)c(C4CC4)c3)c2-n2ccn(-c3ccc4c(cnn4C)c3F)c2=O)CCN1C(=O)c1cc2cc([C@@H]3CCOC(C)(C)C3)ccn2c1C1(c2noc(=O)[nH]2)CC1 (single isomer, unassigned) [Compound 73]
< 20 nM | > 1000 nM | 5320 ng·h/mL | 962 ng/mL | 30% | C[C@H]1c2c(nn(-c3ccc(F)c(C4CC4)c3)c2-n2ccn(-c3ccc4c(cnn4C)c3F)c2=O)CCN1C(=O)c1cn2cc([C@@H]3CCOC(C)(C)C3)ccc2c1C1(c2noc(=O)[nH]2)CC1 (single isomer, unassigned) [Compound 76]
< 20 nM | > 1000 nM | 3340 ng·h/mL | 1370 ng/mL | 59% | C[C@H]1c2c(nn(-c3ccc(F)c(C4CC4)c3)c2-n2ccn(-c3ccc4c(cnn4C)c3F)c2=O)CCN1C(=O)c1cn2nc([C@@H]3CCOC(C)(C)C3)ccc2c1C1(c2noc(=O)[nH]2)CC1 (single isomer, unassigned) [Compound 90]
< 20 nM | > 1000 nM | 2660 ng·h/mL | 738 ng/mL | 22% | C[C@H]1c2c(nn(-c3ccc(F)c(C4CC4)c3)c2-n2ccn(-c3ccc4c(cnn4C)c3F)c2=O)CCN1C(=O)c1cn2cc([C@H]3CCOC(C)(C)C3)cc(F)c2c1C1(c2noc(=O)[nH]2)CC1 (single isomer, unassigned) [Compound 91]
> 100 nM | – | – | – | – | Cc1cc(-n2nc3c(c2-n2ccn(-c4ccc5c(cnn5C)c4F)c2=O)CN(C(=O)c2cc4cc(C5CCOCC5)ccc4n2-c2cccc4[nH]nnc24)CC3)cc(C)c1F [Compound 59, 1-(5-(1-(1H-benzo[d][1,2,3]triazol-4-yl)-5-(tetrahydro-2H-pyran-4-yl)-1H-indole-2-carbonyl)-2-(4-fluoro-3,5-dimethylphenyl)-4,5,6,7-tetrahydro-2H-pyrazolo[4,3-c]pyridin-3-yl)-3-(4-fluoro-1-methyl-1H-indazol-5-yl)-1,3-dihydro-2H-imidazol-2-one]

Source: patent US12037339B2, “Substituted imidazoles as GLP-1 receptor agonists” (Eccogene Inc., priority 2020, dated 2024)
